Literature values in US20250325691A1, “HER2-GST-SN-38 COMPLEX, AND PHARMACEUTICAL COMPOSITION COMPRISING SAME FOR PREVENTING OR TREATING PROLIFERATIVE DISEASES” (priority 2022, published 2025).

Tested on: various cancer cells
Conditions: various cancer cells in vitro; cited from earlier work

CCc1c2c(nc3ccc(O)cc13)-c1cc3c(c(=O)n1C2)COC(=O)[C@]3(O)CC [SN-38, 7-ethyl-10-hydroxycamptothecin]
cytotoxic activity, times more potent than irinotecan: up to 1,000 times
